The text below walks through data of patent US10653822B2, “Drug delivery devices and methods of making and using same” (The Administrators of the Tulane Educational Fund, priority 2012, dated 2020).

For data set [1] the following is noted: cited from earlier work.
The test system of data set [2] is COS-1 cells. Kind of data set: Cytotoxicity of drug released into culture medium over timed intervals.
Data set [3] is described as follows: In vitro release of 5-FU from double-layered breath figure PLGA films in PBS. Type of data set: physicochemical. As for the experimental part:
IN VITRO RELEASE CHARACTERISTICS OF DOUBLE-LAYERED 5-FU-PLGA FILM. […] At specific time intervals, a 1 ml aliquot of the solution was withdrawn and 1 ml of fresh PBS was added to the vial to maintain constant volume. The pH of the medium was monitored during the course of the experiment to verify that the solution was buffered adequately during polymer degradation. Each aliquot was centrifuged to remove any possible debris from the degraded polymer components that could interfere with the absorbance readings and drug release was quantified through the absorbance measured at 266 nm. A standard calibration plot of 5-FU absorbance was constructed to correlate absorbance with drug release levels. All experiments were conducted with triplicate polymer samples.

For data set [4], the system named is LN-229 cells. The text has this:
(§1) HIGH PERFORMANCE LIQUID CHROMATOGRAPHY. […] DAD wavelength was set to 285 nm.
HPLC parameters are given in the materials and methods section and in the legend to FIG. 39. Data represent average values from 2 experiments in triplicate (n=6)±SD (SD values for some points are too small to be visible). […] To test this alternative interpretation, we collected conditioned medium from the LN-229 cells cultured for 72 hrs.

For data set [5], the system named is blood-brain barrier (BBB) in vitro model. The settings on record: coculture with inserts; cited from earlier work.
In data set [6] the test system is LN-229 cells. Description: Subcellular distribution of FF and FA in LN-229 membrane and cytosolic fractions (HPLC). The following applies: per 10^6 LN-229 cells, 25 μM fenofibrate, 24 hrs.
Method: (§2) Blood plasma, cell culture media, cellular and tissue lysates, were deproteinized by adding 150 μl of acetonitrile to 150 μl of sample, mixed well and centrifuged (15 000 g, 5 min). […] For the subcellular fractionation, subconfluent monolayer cultures were washed in phosphate buffered saline (PBS) twice, then cells were scraped and lysed in 2% sodium dodecyl sulphate (SDS) in PBS. The lysates were sonicated on ice and centrifuged (15 000 g, 5 min). Finally, 150 μl of the supernatant was mixed with the equal volume of acetonitrile, filtered through 0.22 μm centrifuge filter (Sigma) and analyzed by High Performance Liquid Chromatography (HPLC).
(§3) All data were obtained from the Agilent Technologies 1100 apparatus equipped with a line degasser, binary pump (high pressure mixer), autosampler, column thermostat and Diode Array Detector (DAD). The YMCBase, 3 μm 4.6×150 mm analytical column was used and solvent A—50 mM acetic acid in water or solvent B—acetonitrile, with isocratic flow 60%. Flow rate was set to 1 ml/min, column temperature was 20° C., and 5 μl of 0.22 μm filtered sample was injected. DAD wavelength was set to 285 nm.
(§4) Data represent average values from three separate measurements with standard deviation.
A short description of data set [7]: Tissue distribution of FF and FA after oral fenofibrate in mice (HPLC). The following applies: for concentration at 4 weeks: Balb c/nude, mouse, oral, 50 mg/kg/day. Type of data set: in vivo. Here is the method:
ANIMAL STUDIES. […] according to the standard ethically accepted procedure, and the following organs/body fluids were collected: blood, urine, liver, kidneys, spleen, heart, lungs, intact brain and intracranial tumor tissue.
as §1
For body fluids concentrations are calculated per ml of the body fluid, and in solid tissues per mg of the tissue.

The conditions of data set [8]: 120 h.
Data set [9] deals with LN-229 cells. The following applies: human, 24 h, 25 µM.
Method: as §2, §3, §4
Data set [10] can be described thus: HPLC detection of FF to FA conversion in human blood. Format: in vitro ADME. The following applies: 50 μM FF in human blood, 4 hours, 37° C.
From the text: as §1

In data set [11] the test system is LN-229 cells. Kind of data set: Clonogenic assay. Type of data set: cell-based, human. The following applies: 12 days; drugs at 50 μM or wafer with 1 mg fenofibrate. Here is the method: CHLONOGENIC ASSAY. […] Control cells were treated with the vehicle (DMSO). […] All the conditions were tested in duplicate and each experiment was performed at least three times.

The test system of data set [12] is COS-1 cells. Kind of data set: COS-1 proliferation with MMC-loaded PLGA films, 5-day culture, toluidine blue. Format: cell-based. The following applies: MMC incorporated into the bulk PLGA film. As for the experimental part: CELL CULTURE AND RELEASE STUDY. For the dose response study, control samples (no drug) and MMC-containing samples were loaded into sterile 12-well plates. […] COS-1 cells (10^4 cells) were added to each well and the cells were incubated at 37° C. in a humidified 5% CO2-95% air atmosphere. The culture medium was replenished on day 3 and day 5 after the cells were plated. After 5 days of culture, the cell accumulation in each culture dish was assessed. The culture medium was removed and the cell layer was gently washed 3 times with 5 mL of phosphate-buffered saline (PBS). […] The amount of dye in each well was measured by the absorbance at 650 nm, which is equivalent to the number of cells, using UV-Visible spectrophotometer (Model UB-1601, Shimadzu scientific instruments Inc, Houston, Tex.).
For the preliminary dose-response study, COS-1 cells (10^4 cells in 1 mL) were added to each well of a 12-well plate. […] After 5 days of culture, the cell accumulation in each culture dish was assessed by a modification of a previously described procedure (Leavesley D I, Ferguson G D, Wayner E A, et al. Requirement of the integrin beta 3 subunit for carcinoma cell spreading or migration on vitronectin and fibrinogen. J Cell Biol. 1992; 117:1101-1107.) Briefly, culture medium was removed and the cell layer was gently washed 2 times with 2 mL of phosphate-buffered saline (PBS). […]

Data set [13] can be described thus: Stability of MMC in PBS and after spin-casting in PLGA-dichloromethane. Type of data set: physicochemical.
A short description of data set [14]: In vitro release of MMC from surface-loaded PLGA films into PBS. The settings on record: films loaded with 1 and 5 μg MMC, absorbance at 364 nm. Type of data set: physicochemical. Here is the method: Aliquots (0.65 mL) of the PBS were removed at specific time intervals after immersion of the polymer samples, and absorbance was measured at 364 nm using a UV spectrophotometer (Shimadzu UV-1700 series). After measurement, the aliquots were returned to the vials to maintain constant volume and sink conditions.

Data set [15] in a line: In vitro release of model drugs (salicylic acid, ibuprofen) from breath figure and non-porous PLGA and PEG/PLGA films in PBS. Type of data set: physicochemical. The settings on record: PBS 37° C. As for the experimental part: Ibuprofen and Salicylic acid were used as model drugs to characterize the release profiles of breath figure polymer films. The equivalent non-porous smooth films were used as controls. In vitro release studies were carried out by incubating 1.5 cm side square drug incorporated films in 15 ml of PBS medium at 37° C. and stirred gently using a magnetic stirrer. At specific time intervals, 0.650 ml aliquots of the solution was withdrawn and centrifuged to remove any possible debris from the degrading polymer. Then, the aliquot was returned to the vial after measuring the absorbance to quantify drug release. The pH of the medium was monitored during the course of the experiment to verify that the solution is buffered adequately during polymer degradation. Ibuprofen and salicylic acid release were quantified through the absorbance at 221 and 296 nm, respectively. Standard calibration plots of ibuprofen and salicylic acid absorbance were constructed to correlate absorbance with drug release levels. All experiments were conducted in triplicate.
The release profile of breath figure PLGA and PEG/PLGA films was carried out in PBS medium (pH 7.4, 0.1M), incubated at 37° C. A non-porous film with the equivalent amount of drug dispersed was used as control. […] FIG. 14 illustrates the cumulative release of salicylic acid from the PLGA film and PEG/PLGA film, respectively, for a period of 2 days. […]

[16] abbreviates: blood, read-out: concentration in Blood.
[17] abbreviates: urine, read-out: concentration in Urine.
Setting [18] is: mice, micronized fenofibrate 50 mg/kg/day oral, n = 4.
Where [19] appears, read: mice, micronized fenofibrate 50 mg/kg/day oral, n = 6.

Molecules are shown by their SMILES. Read-outs that look alike come from different tables or passages of the source. Bounds are passed on as bounds.

For the compound `O=c1[nH]cc(F)c(=O)[nH]1` [5-FU, 5-fluorouracil], the “water solubility (in words)” value in [1] is on record as “highly water soluble”. Also, the “killing efficiency (percent of cells killed vs PLGA film without drug)” value with COS-1 cells [2] (double-layered film with 0.1 mg 5-FU, samples from >15 days of incubation) is given as “about 75%”. Also, in the data set with COS-1 cells [2] (double-layered film with 0.4 mg 5-FU), the “total incubation with culture medium until maximum cytotoxicity” value was 4 to 5 days. In data set [3], the “continuous release of drug after the lag phase” value is 21 days, the “duration of sharp increase in drug release after the delay” value is 10 days and the “lag period after the sharp release phase” value was 2 to 3 days. In addition, the “delay of the initial release by sealing” value in [3] (sealed top layer) was 3 to 5 days. Besides, the “burst effect in the first 24 hours of incubation” value in [3] (sealed top layer, 0.1, 0.4, 2 mg 5-FU) is recorded as “no burst effect”.
For `CC(C)(Oc1ccc(C(=O)c2ccc(Cl)cc2)cc1)C(=O)O` [FA, fenofibric acid], the “FA detected after FF incubation in filtered conditioned medium” value with LN-229 cells [4] was “did not detect any traces”. Further, the BBB permeability coefficient in [5] is 11.3 ×10⁻⁶ cm/s. Moreover, the “amount in cytosolic fraction” value in the data set with LN-229 cells [6] was determined as 0.57 nmol. Moreover, the concentration at 4 weeks in [7] (setting [16]) worked out at 3.33 µM. The concentration at 4 weeks in data set [7] (setting [17]) is 5.34 µM. In addition, the “concentration in Intracranial tumor” value in data set [7] (mice with intracranial LN-229, micronized fenofibrate 50 mg/kg/day oral, n = 6) was 0 nmol/mg. In addition, in data set [7] (setting [18]), the “concentration in Heart” value was 1.31 ± 1.4 nmol/mg and the “concentration in Spleen” value was determined as 1.33 ± 1.1 nmol/mg. In addition, in data set [7] (mice, micronized fenofibrate 50 mg/kg/day oral, n = 5), the “concentration in Brain” value came to 0.06 ± 0.1 nmol/mg. In addition, in [7] (setting [19]), the “concentration in Kidneys” value was determined as 1.5 ± 0.8 nmol/mg, the “concentration in Liver” value came out at 11.35 ± 3.9 nmol/mg and the “concentration in Lungs” value was found to be 0.36 ± 04 nmol/mg.
As to `CC(C)OC(=O)C(C)(C)Oc1ccc(C(=O)c2ccc(Cl)cc2)cc1` [FF, fenofibrate], the “stability in culture medium” value in data set [8] is given as “at least 120 h”. In addition, the “time of maximal intracellular concentration” value in the data set on LN-229 cells [4] (human, 50 µM) was found to be 24 h. Besides, the “amount in cytosolic fraction” value in the data set on LN-229 cells [9] came to 2.40 nmol. Besides, the concentration at 4 weeks in [7] (setting [16]) and in [7] (setting [17]) was 0 µM throughout. Moreover, the “decrease of FF peak in human blood” value in [10] is reported as “about 5 fold”.
Turning to `Cc1ccc(C)c(OCCCC(C)(C)C(=O)O)c1` [Gemfibrozil, gemfibrozil], the “inhibition of clonal growth of LN-229 cells” value with LN-229 cells [11] is “not able to reproduce them”.
In the case of `CO[C@@]12[C@H](COC(N)=O)C3=C(C(=O)C(C)=C(N)C3=O)N1C[C@@H]1N[C@@H]12` [MMC, mitomycin C], in the data set on COS-1 cells [12], the “toxic effect of degraded products on COS-1 cells” value is reported as “no toxic effect”. Besides, the “loss of activity in PBS at 23 degrees C.” value in [13] (50 day incubation, 23 degrees C.) is listed as “approximately 15%”. Moreover, the “loss of activity in PBS at 37 degrees C.” value in [13] (50 day incubation, 37 degrees C.) is reported as around 50%. Further, the “activity in PBS at 4 degrees C.” value in [13] (50 days, 4 degrees C.) was “retained its activity”. Besides, the “loss of activity after dissolving in PLGA-dichloromethane and spin-casting” value in data set [13] (spin-cast PLGA film) is 100%. In addition, in data set [14], the “active drug released from the film” value was 20-40%.
Turning to `Cc1cccc(Nc2cc(Cl)nc(SCC(=O)O)n2)c1C` [Wy-14,643], the “inhibition of clonal growth of LN-229 cells” value in the data set with LN-229 cells [11] is “not able to reproduce them”.
With `CC(C)Cc1ccc(C(C)C(=O)O)cc1` (stereo not shown) [ibuprofen], the water solubility in data set [1] is below 500 µg/mL. The “duration of release from films” value in data set [15] is given as “at least 14 days”.
Turning to `O=C(O)c1ccccc1O` [salicylic acid], in data set [1], the water solubility was above 2000 µg/mL.
